# Measured values: patent US7714017B2, “Carboxylic acid peri-substituted bicyclics for occlusive artery disease” (Decode Genetics, EHF, priority 2004, dated 2010)
# Target: T1, prostanoid EP3 receptors (Homo sapiens, UniProt P43115)
# T1 sequence (P43115 1-390): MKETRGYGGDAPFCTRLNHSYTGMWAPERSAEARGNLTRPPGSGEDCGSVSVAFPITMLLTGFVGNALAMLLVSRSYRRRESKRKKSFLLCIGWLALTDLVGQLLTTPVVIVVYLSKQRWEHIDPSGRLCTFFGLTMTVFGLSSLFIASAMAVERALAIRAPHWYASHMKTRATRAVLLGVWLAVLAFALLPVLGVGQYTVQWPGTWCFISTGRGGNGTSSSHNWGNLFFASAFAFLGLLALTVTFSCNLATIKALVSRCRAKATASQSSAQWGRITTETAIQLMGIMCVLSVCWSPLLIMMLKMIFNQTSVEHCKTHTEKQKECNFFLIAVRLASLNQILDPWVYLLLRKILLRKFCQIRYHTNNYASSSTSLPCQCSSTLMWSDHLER
# Experiment: binding on prostanoid EP3 receptors (method of Abramovitz et al.)
# Conditions: Chart 1, read-out: Activity (EP3 receptor binding IC50 class)
# Description: (§1) The compounds of the invention were assayed for their binding on prostanoid EP3 receptors according to the method of Abramovitz et al. [Bioch. Biophys. Acta, 1473, 285-293 (2000)]. […] Compounds with IC50<1 μM are shown as +++; compounds with IC50 1-10 μM are shown as ++; and compounds with IC50>10 μM are shown as +.
# as §1, with “Acta.” for “Acta,”
row,Structure (SMILES),IC50 [µM]
1,"O=C(O)CCc1cccc2ccn(Cc3ccc4ccccc4c3)c12 [Compound A58, 3-(1-Naphthalen-2-ylmethyl-1H-indol-7-yl)-propionic acid]",< 1
2,"O=C(O)/C=C/c1cccc2ccn(Cc3ccc4ccccc4c3)c12 [Compound A53, (E)-3-(1-Naphthalen-2-ylmethyl-1H-indol-7-yl)-acrylic acid]",< 1
3,"Cc1ccc(C)c(Cn2c(=O)oc3cccc(OCC(=O)O)c32)c1 [Compound A08, [3-(2,5-Dimethyl-benzyl)-2-oxo-2,3-dihydro-benzooxazol-4-yloxy]-acetic acid]",1 to 10
4,"O=C(O)COc1cccc2oc(=O)n(Cc3ccc4ccccc4c3)c12 [Compound A04, (3-Naphthalen-2-ylmethyl-2-oxo-2,3-dihydro-benzooxazol-4-yloxy)-acetic acid]",1 to 10
5,"Cn1cc(/C=C/C(=O)O)c2c(Oc3ccc(F)cc3F)cccc21 [Compound A37, (E)-3-[4-(2,4-Difluoro-phenoxy)-1-methyl-1H-indol-3-yl]-acrylic acid]",< 1
6,"O=C(O)COc1cccc2oc(=O)n(Cc3ccc(Cl)c(Cl)c3)c12 [Compound A06, [3-(3,4-Dichloro-benzyl)-2-oxo-2,3-dihydro-benzooxazol-4-yloxy]-acetic acid]",1 to 10
7,"O=C(O)/C=C/c1cnn2ccn(Cc3ccc4ccccc4c3)c12 [Compound A02, (E)-3-(1-Naphthalen-2-ylmethyl-1H-imidazo[1,2-b]pyrazol-7-yl)-acrylic acid]",1 to 10
8,"CC12CCCC(/C=C/C(=O)O)=C1N(Cc1ccc3ccccc3c1)C(=O)C2 (stereo not drawn) [Compound A24, (E)-3-(3a-Methyl-1-naphthalen-2-ylmethyl-2-oxo-2,3,3a,4,5,6-hexahydro-1H-indol-7-yl)-acrylic acid]",1 to 10
9,"O=Cc1cn(Cc2ccc(Cl)cc2Cl)c2c(/C=C/C(=O)O)cccc12 [Compound A11, (E)-3-[1-(2,4-Dichloro-benzyl)-3-formyl-1H-indol-7-yl]-acrylic acid]",< 1
10,"CC12CCCC(/C=C/C(=O)O)=C1N(Cc1ccc(F)c(F)c1)C(=O)C2 (stereo not drawn) [Compound A30, (E)-3-[1-(3,4-Difluoro-benzyl)-3a-methyl-2-oxo-2,3,3a,4,5,6-hexahydro-1H-indol-7-yl]-acrylic acid]",1 to 10
11,"Cn1cc(/C=C/C(=O)O)c2c(Oc3ccc(F)c(F)c3)cccc21 [Compound A42, (E)-3-[4-(3,4-Difluoro-phenoxy)-1-methyl-1H-indol-3-yl]-acrylic acid]",1 to 10
12,"O=C(O)C=Cc1cccc2c1N(Cc1ccc3ccccc3c1)C(=O)C2(O)C(F)(F)F (stereo not drawn) [Compound A15, 3-(3-Hydroxy-1-naphthalen-2-ylmethyl-2-oxo-3-trifluoromethyl-2,3-dihydro-1H-indol-7-yl)-acrylic acid]",1 to 10
13,"O=C(O)COc1cccc2ncn(Cc3ccc4ccccc4c3)c12 [Compound A22, (3-Naphthalen-2-ylmethyl-3H-benzoimidazol-4-yloxy)-acetic acid]",> 10
14,"O=C(O)/C=C/c1cccc2c1N(Cc1ccc(F)c(F)c1)C(=O)C2=O [Compound A60, (E)-3-[1-(3,4-Difluoro-benzyl)-2,3-dioxo-2,3-dihydro-1H-indol-7-yl]-acrylic acid]",1 to 10
15,"CC12CCCC(/C=C/C(=O)O)=C1N(Cc1ccc(F)cc1)C(=O)C2 (stereo not drawn) [Compound A28, (E)-3-[1-(4-Fluoro-benzyl)-3a-methyl-2-oxo-2,3,3a,4,5,6-hexahydro-1H-indol-7-yl]-acrylic acid]",< 1
16,"CC12CCCC(CCC(=O)O)=C1N(Cc1ccc(F)c(F)c1)C(=O)C2 (stereo not drawn) [Compound A50, 3-[1-(3,4-Difluoro-benzyl)-3a-methyl-2-oxo-2,3,3a,4,5,6-hexahydro-1H-indol-7-yl]-propionic acid]",1 to 10
17,"Cn1cc(/C=C/C(=O)O)c2c(Oc3ccc(Cl)cc3)cccc21 [Compound A41, (E)-3-[4-(4-Chloro-phenoxy)-1-methyl-1H-indol-3-yl]-acrylic acid]",1 to 10
18,"CC12CCCC(/C=C/C(=O)O)=C1N(Cc1cccc(F)c1)C(=O)C2 (stereo not drawn) [Compound A27, (E)-3-[1-(3-Fluoro-benzyl)-3a-methyl-2-oxo-2,3,3a,4,5,6-hexahydro-1H-indol-7-yl]-acrylic acid]",< 1
19,"O=C(O)C(=O)Nc1cccc2c1N(Cc1ccc3ccccc3c1)C(=O)CO2 [Compound A51, N-(4-Naphthalen-2-ylmethyl-3-oxo-3,4-dihydro-2H-benzo[1,4]oxazin-5-yl)-oxalamic acid]",> 10
20,"CC12CCCC(/C=C/C(=O)O)=C1N(Cc1ccc(Cl)c(Cl)c1)C(=O)C2 (stereo not drawn) [Compound A34, (E)-3-[1-(3,4-Dichloro-benzyl)-3a-methyl-2-oxo-2,3,3a,4,5,6-hexahydro-1H-indol-7-yl]-acrylic acid]",< 1
21,CN(C)Cc1cn(Cc2ccc3ccccc3c2)c2c(/C=C/C(=O)O)cccc12 [Compound A55],1 to 10
22,"Cn1cc(/C=C/C(=O)O)c2c(Oc3ccc4ccccc4c3)cccc21 [Compound A44, (E)-3-[1-Methyl-4-(naphthalen-2-yloxy)-1H-indol-3-yl]-acrylic acid]",< 1
23,"Cn1nc(NCC(=O)O)c2c(Oc3ccc4ccccc4c3)cccc21 [Compound A25, [1-Methyl-4-(naphthalen-2-yloxy)-1H-indazol-3-ylamino]-acetic acid]",< 1
24,"COc1cccc(CN2C(=O)CC3(C)CCCC(/C=C/C(=O)O)=C23)c1 (stereo not drawn) [Compound A29, (E)-3-[1-(3-Methoxy-benzyl)-3a-methyl-2-oxo-2,3,3a,4,5,6-hexahydro-1H-indol-7-yl]-acrylic acid]",< 1

# Now from value to molecule:
row,IC50 [µM],Structure (SMILES)
1,1 to 10,O=C(O)COc1cccc2oc(=O)n(Cc3ccc(Cl)cc3Cl)c12 [Compound A07]
2,< 1,"CCOC(=O)C12CCCC(/C=C/C(=O)O)=C1N(Cc1ccc(Cl)cc1Cl)C(=O)C2 (stereo not drawn) [Compound A47, 7-((E)-2-Carboxy-vinyl)-1-(2,4-dichloro-benzyl)-2-oxo-1,2,3,4,5,6-hexahydro-indole-3a-carboxylic acid ethyl ester]"
3,1 to 10,"Cn1cc(/C=C/C(=O)O)c2c(Oc3ccc(F)cc3Cl)cccc21 [Compound A46, (E)-3-[4-(2-Chloro-4-fluoro-phenoxy)-1-methyl-1H-indol-3-yl]-acrylic acid]"
4,< 1,"O=C(O)COc1cccc2ncn(Cc3ccc(Cl)cc3Cl)c12 [Compound A21, [3-(2,4-Dichloro-benzyl)-3H-benzoimidazol-4-yloxy]-acetic acid]"
5,< 1,"O=C(O)/C=C/c1cccc2c1N(Cc1ccc(Cl)cc1Cl)C(=O)C2(CO)CO [Compound A62, (E)-3-[1-(2,4-Dichloro-benzyl)-3,3-bis-hydroxymethyl-2-oxo-2,3-dihydro-1H-indol-7-yl]-acrylic acid]"
6,1 to 10,"CN1C(=O)C(C(=O)Nc2ccc(Cl)cc2Cl)c2c(/C=C/C(=O)O)cccc21 (stereo not drawn) [Compound A33, (E)-3-[3-(2,4-Dichloro-phenylcarbamoyl)-1-methyl-2-oxo-2,3-dihydro-1H-indol-4-yl]-acrylic acid]"
7,1 to 10,"O=C(O)/C=C/c1cccc2c(CO)cn(Cc3ccc(Cl)cc3Cl)c12 [Compound A10, (E)-3-[1-(2,4-Dichloro-benzyl)-3-hydroxymethyl-1H-indol-7-yl]-acrylic acid]"
8,1 to 10,"Cc1cn(Cc2ccc(Cl)cc2Cl)c2c(/C=C/C(O)(C(F)(F)F)C(F)(F)F)cc(F)cc12 [Compound A64, (E)-4-[1-(2,4-Dichloro-benzyl)-5-fluoro-3-methyl-1H-indol-7-yl]-1,1,1-trifluoro-2-trifluoromethyl-but-3-en-2-ol]"
9,1 to 10,"O=C(O)/C=C/c1cccc2c1N(Cc1ccc(Cl)cc1Cl)C(=O)C2=O [Compound A17, (E)-3-[1-(2,4-Dichloro-benzyl)-2,3-dioxo-2,3-dihydro-1H-indol-7-yl]-acrylic acid]"
10,< 1,"Cn1cc(/C=C/C(=O)O)c2c(Oc3ccc(Cl)cc3F)cccc21 [Compound A45, (E)-3-[4-(4-Chloro-2-fluoro-phenoxy)-1-methyl-1H-indol-3-yl]-acrylic acid]"
11,1 to 10,"Cc1cc2c(=O)n(C)c(=O)n(CCC(=O)O)c2n1Cc1ccc(Cl)cc1Cl [Compound A63, 3-[7-(2,4-Dichloro-benzyl)-3,6-dimethyl-2,4-dioxo-2,3,4,7-tetrahydro-pyrrolo[2,3-d]pyrimidin-1-yl]-propionic acid]"
12,1 to 10,"CC1(C)C(=O)N(Cc2ccc(Cl)cc2Cl)c2c(/C=C/C(=O)O)cccc21 [Compound A19, (E)-3-[1-(2,4-Dichloro-benzyl)-3,3-dimethyl-2-oxo-2,3-dihydro-1H-indol-7-yl]-acrylic acid]"
13,< 1,"Cc1cn(Cc2ccc(Cl)cc2Cl)c2c(/C=C/C(=O)O)cccc12 [Compound A09, (E)-3-[1-(2,4-Dichloro-benzyl)-3-methyl-1H-indol-7-yl]-acrylic acid]"
14,< 1,"Cn1cc(/C=C/C(=O)O)c2c(Oc3ccc(Cl)cc3Cl)cccc21 [Compound A40, (E)-3-[4-(2,4-Dichloro-phenoxy)-1-methyl-1H-indol-3-yl]-acrylic acid]"
15,< 1,"COCc1cn(Cc2ccc(Cl)cc2Cl)c2c(/C=C/C(=O)O)cccc12 [Compound A12, (E)-3-[1-(2,4-Dichloro-benzyl)-3-methoxymethyl-1H-indol-7-yl]-acrylic acid]"
